Measurements as given in US6337336B1, “Azaindole derivatives for the treatment of depression” (American Home Products Corporation, priority 1999, dated 2002).
Where a name gives a salt, the structure may show the parent alone.

Assays:
[1] = molecular target: T1, serotonin transporter (Rattus norvegicus, UniProt P31652); assay: serotonin transporter affinity, 3H-paroxetine binding in rat frontal cortical membranes; conditions: 3H-paroxetine 0.1 nM, read-out: ST (Ki)
T1 construct: frontal cortical membranes prepared from male Sprague-Dawley rats; from tissue; host or cells: rat frontal cortex membranes (male Sprague-Dawley)
Experimental: A protocol similar to that used by Cheetham et al., Neuropharmacol., 32:737 (1993) was used to determine the affinity of compounds for the serotonin transporter. Briefly, frontal cortical membranes prepared from male Sprague-Dawley rats were incubated with ^3H-paroxetine (0.1 nM) for 60 min at 25° C. All tubes also contained either vehicle, test compound (one to eight concentrations), or a saturating concentration of fluoxetine (10 μM) to define […]. All reactions were terminated by the addition of ice cold Tris buffer followed by rapid filtration using a Tom Tech filtration device to separate bound from free ^3H-paroxetine. Bound radioactivity was quantitated using a Wallac 1205 Beta Plate® counter. Nonlinear regression analysis was used to determine IC50 values which were converted to Ki values using the method set forth in Cheng and Prusoff, Biochem. Pharmacol., 22:3099 (1973) (Ki=IC50/((Radioligand conc.)/(1+KD)).

[2] = molecular target: T2, human 5-HT1A receptor (Homo sapiens, UniProt P08908); assay: human 5-HT1A receptor binding with [3H]8-OH-DPAT in CHO cell membranes
T2 sequence (P08908 1-422): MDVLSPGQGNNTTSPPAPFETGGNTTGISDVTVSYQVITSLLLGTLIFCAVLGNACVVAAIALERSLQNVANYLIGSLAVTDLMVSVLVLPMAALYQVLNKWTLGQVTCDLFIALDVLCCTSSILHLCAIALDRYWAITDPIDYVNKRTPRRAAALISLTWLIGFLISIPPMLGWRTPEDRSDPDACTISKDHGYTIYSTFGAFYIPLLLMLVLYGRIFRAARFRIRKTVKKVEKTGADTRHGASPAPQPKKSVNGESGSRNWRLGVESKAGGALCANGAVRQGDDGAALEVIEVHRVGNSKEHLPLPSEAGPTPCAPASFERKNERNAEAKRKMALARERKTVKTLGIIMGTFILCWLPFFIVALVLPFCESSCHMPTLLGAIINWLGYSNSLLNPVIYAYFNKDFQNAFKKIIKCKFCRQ

[3] = molecular target: T3, 5-HT1A cloned receptor (Homo sapiens, UniProt P08908); assay: [35S]-GTPγS binding assay; format: biochemical; conditions: relative to maximum agonist response defined by excess 8-OH-DPAT
T3 construct: expressed in transfected cells
T3 sequence (P08908 1-422): T2 sequence (P08908 1-422)
Experimental: The [^35S]-GTPγS binding assay was similar to that used by Lazareno and Birdsall, Br. J. Pharmacol. 109:1120 (1993). Briefly, 5-HT1A cloned receptor membrane fragments (as used for 5-HT1A receptor binding assays) were stored at −70° C. When needed, membranes were rapidly thawed, centrifuged at 40,000×g for 10 minutes and resuspended at 4° C. for 10 minutes in assay buffer (25 mM HEPES, 3 mM MgCl2, 100 mM NaCl, 1 mM EDTA, 10 uM GDP, […], pH 8.0). These membranes were then incubated for 30 min at 30° C. with [^35S]GTPgS (1 nM) in the presence of vehicle, test compound (one to eight concentrations), or excess 8-OH-DPAT to define maximum agonist response. All reactions were terminated by the addition of ice cold Tris buffer followed by rapid filtration using a Tom Tech® filtration device to separate bound from free [^35S]GTPgS. Agonists produced an increase in the amount of [^35S]GTPgS bound whereas antagonists produced no increase in binding. Bound radioactivity was counted and analyzed as above.

[4] = molecular target: T2, human 5-HT1A receptor; assay: forskolin-stimulated cAMP formation in 5-HT1A.CHO cells (cAMP SPA assay); format: cell-based; design: expressed in transfected cells; conditions: forskolin 1 uM
Experimental: The following assays were performed by incubating the cells with DMEM containing 25 mM HEPES, 5 mM theophylline and 10 μM pargyline for a period of 20 minutes at 37° C. Functional activity was assessed by treating the cells with forskolin (1 uM final concentration) followed immediately by test compound (6 concentrations) for an additional 10 min at 37° C. In separate experiments, 6 concentrations of antagonist were preincubated for 20 min prior to the addition of 10 nM 8-OH-DPAT and forskolin. The reaction was terminated by removal of the media and addition of 0.5 ml ice cold assay buffer. Plates were stored at −20° C. prior to assessment of cAMP formation by a cAMP SPA assay (Amersham).

T1 sequence (P31652 whole entry): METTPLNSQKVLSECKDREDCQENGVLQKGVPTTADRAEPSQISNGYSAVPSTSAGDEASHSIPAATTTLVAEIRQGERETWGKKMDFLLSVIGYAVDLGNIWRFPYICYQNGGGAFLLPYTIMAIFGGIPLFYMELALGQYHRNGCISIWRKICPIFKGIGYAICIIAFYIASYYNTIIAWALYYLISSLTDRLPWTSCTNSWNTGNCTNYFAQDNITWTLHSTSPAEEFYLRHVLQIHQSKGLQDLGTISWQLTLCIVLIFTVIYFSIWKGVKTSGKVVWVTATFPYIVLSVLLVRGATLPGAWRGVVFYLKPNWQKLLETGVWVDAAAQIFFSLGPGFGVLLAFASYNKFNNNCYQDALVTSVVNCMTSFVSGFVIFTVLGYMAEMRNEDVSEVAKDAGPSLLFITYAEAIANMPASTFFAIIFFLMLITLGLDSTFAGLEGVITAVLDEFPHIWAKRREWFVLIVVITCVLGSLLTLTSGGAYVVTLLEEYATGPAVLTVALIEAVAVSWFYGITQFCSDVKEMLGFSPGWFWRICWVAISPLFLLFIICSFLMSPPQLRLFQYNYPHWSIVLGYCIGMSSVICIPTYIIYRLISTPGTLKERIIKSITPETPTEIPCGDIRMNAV

Row | Compound | melting point [°C] | Ki [1] [nM] | Ki [2] [nM] | Emax [3] [%] | Emax [4] [%]
1 | C1=C(c2c[nH]c3ncccc23)CCN(CCOc2cccc3c2OCCO3)C1 (as salt: oxalate) [Example 1, 3-{1-[2-(2,3-Dihydro-benzo[1,4]dioxin-5-yloxy)-ethyl]-1,2,3,6-tetrahydro-pyridin-4-yl}-1H-pyrrolo[2,3-b]pyridine] | 164 to 167 |  |  |  | 
2 | C1=C(c2c[nH]c3ncccc23)CCN(CCOc2cccc3[nH]ccc23)C1 (as salt: oxalate) [Example 2, 3-{1-[2-(1H-Indol-4-yloxy)-ethyl]-1,2,3,6-tetrahydro-pyridin-4-yl}-1H-pyrrolo[2,3-b]pyridine] | 106 to 109 |  |  |  | 
3 | C1=C(c2c[nH]c3ncccc23)CCN(CCOc2cccc3c2OCCO3)C1 [Example 1, 3-{1-[2-(2,3-Dihydro-benzo[1,4]dioxin-5-yloxy)-ethyl]-1,2,3,6-tetrahydro-pyridin-4-yl}-1H-pyrrolo[2,3-b]pyridine] |  | 18 | 43.9 | 30 | 
4 | C1=C(c2c[nH]c3ncccc23)CCN(CCOc2cccc3[nH]ccc23)C1 [Example 2, 3-{1-[2-(1H-Indol-4-yloxy)-ethyl]-1,2,3,6-tetrahydro-pyridin-4-yl}-1H-pyrrolo[2,3-b]pyridine] |  | 1.46 | 10.9 | 9 | 0
5 | C1=C(c2c[nH]c3ncccc23)CCN(CCOc2cccc3ncccc23)C1 (as salt: oxalate) [Example 3, 5-{2-[4-(1H-Pyrrolo[2,3-b]pyridin-3-yl)-3,6-dihydro-2H-pyridin-1-yl]-ethoxy}-quinoline] | 202 to 205 |  |  |  | 
6 | C1=C(c2c[nH]c3ncccc23)CCN(CCOc2cccc3ncccc23)C1 [Example 3, 5-{2-[4-(1H-Pyrrolo[2,3-b]pyridin-3-yl)-3,6-dihydro-2H-pyridin-1-yl]-ethoxy}-quinoline] |  | 6.89 | 71.6 | 0 | 0
